The values that follow are results of earlier work, collected in PMC3834896.

The first data set is described as follows: not told.
Conditions: not given
Regarding `CCCCN1CCCCC1=O`, the “log partition n-octanol / PBS or water” value is reported as 1.4 log10.
Regarding `CCCCCCCCN1CCCCC1=O`, the “log partition n-octanol / PBS or water” value was 3.4 log10.
For the molecule `CCCCN1CCCC1=O`, the “log partition n-octanol / PBS or water” value is 1.02 log10.
Regarding `CCCCCCCCCCN1CCCC1=O`, the “log partition n-octanol / PBS or water” value is on record as 4.1 log10.
Take `CCCCCCCCCCCCN1CCCC1=O`: the “log partition n-octanol / PBS or water” value was 4.9 log10.
Turning to `CCCCCCN1CCCCC1=O`, the “log partition n-octanol / PBS or water” value is reported as 2.6 log10.
For `CCCCCCN1CCCC1=O`, the “log partition n-octanol / PBS or water” value is given as 2.1 log10.
For `CCCCCCCCN1CCCC1=O`, the “log partition n-octanol / PBS or water” value is 3.0 log10.

The same data set, now with this note: not told.
For the molecule `CCCCCCCCC(=O)N(C)C`, the “log partition n-octanol / PBS or water” value is 1.9 log10.
For the molecule `CCCCCCC(=O)N(C)C`, the “log partition n-octanol / PBS or water” value is 1.9 log10.
On to `CCCCCCN1CCCCCC1=O`, for which the “log partition n-octanol / PBS or water” value is recorded as 2.9 log10.
With `CCCCCCCC(=O)N(C)C`, the “log partition n-octanol / PBS or water” value is reported as 2.6 log10.
As to `CCCCCC(=O)N(C)C`, the “log partition n-octanol / PBS or water” value is listed as 1.4 log10.
With `CCCCCCCCN1CCCCCC1=O`, the “log partition n-octanol / PBS or water” value is 4.0 log10.
On to `CCCCN1CCCCCC1=O`, for which the “log partition n-octanol / PBS or water” value is listed as 1.8 log10.
For `CCCCCCCCCC(=O)N1CC(O)CC1C(=O)NCC` (centres unmarked), the “log partition n-octanol / PBS or water” value is recorded as 2.9 log10.
Consider `CCCCCCCCCCCCN1CCCCCC1=O`, for which the “log partition n-octanol / PBS or water” value is given as 6.3 log10.
